Measurements from patent US8796244B2, “Imidazopyridine derivatives as inhibitors of receptor tyrosine kinases” (Astex Therapeutics Ltd, priority 2008, dated 2014).
Structures can show the parent of a compound that is named as a salt. Where two headings read alike, the source gives them in different places.

Tests used:
[1] = tested on: parental wild-type Ba/F3 cells; assay: Ba/F3 (WT) cell proliferation assay (Alamar Blue); format: cell-based; conditions: Mus musculus
FGFR3 = FGFR3 (Homo sapiens (Human), UniProt P22607); assay: FGFR3 in vitro kinase inhibitory activity assay (TRF)
Sequence of FGFR3 (P22607 23-806): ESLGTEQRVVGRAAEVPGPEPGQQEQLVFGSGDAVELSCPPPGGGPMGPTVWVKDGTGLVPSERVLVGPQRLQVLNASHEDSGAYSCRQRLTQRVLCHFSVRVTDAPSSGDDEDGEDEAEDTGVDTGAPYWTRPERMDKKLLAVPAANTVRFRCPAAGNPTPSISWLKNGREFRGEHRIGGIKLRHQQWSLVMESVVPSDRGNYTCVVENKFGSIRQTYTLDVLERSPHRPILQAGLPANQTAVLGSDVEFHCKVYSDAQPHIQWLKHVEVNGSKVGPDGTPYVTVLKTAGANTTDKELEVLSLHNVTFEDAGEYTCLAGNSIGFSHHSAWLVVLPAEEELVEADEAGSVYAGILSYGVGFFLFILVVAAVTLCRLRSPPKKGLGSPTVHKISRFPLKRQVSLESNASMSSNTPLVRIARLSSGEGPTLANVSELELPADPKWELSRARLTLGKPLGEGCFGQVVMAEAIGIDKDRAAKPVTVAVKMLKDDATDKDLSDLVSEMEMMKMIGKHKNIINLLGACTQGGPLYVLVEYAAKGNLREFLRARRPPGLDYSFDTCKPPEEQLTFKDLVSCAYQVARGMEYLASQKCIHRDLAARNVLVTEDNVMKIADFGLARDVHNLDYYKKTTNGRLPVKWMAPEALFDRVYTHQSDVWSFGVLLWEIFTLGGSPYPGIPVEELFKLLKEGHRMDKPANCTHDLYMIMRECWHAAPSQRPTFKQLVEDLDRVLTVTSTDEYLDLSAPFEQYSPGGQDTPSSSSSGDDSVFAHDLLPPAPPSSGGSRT

VEGFR2 = VEGFR2 (Homo sapiens (Human), UniProt P35968); assay: VEGFR2 in vitro kinase inhibitory activity assay (TRF, Flt3 substrate); format: biochemical
Sequence of VEGFR2 (P35968 20-1356): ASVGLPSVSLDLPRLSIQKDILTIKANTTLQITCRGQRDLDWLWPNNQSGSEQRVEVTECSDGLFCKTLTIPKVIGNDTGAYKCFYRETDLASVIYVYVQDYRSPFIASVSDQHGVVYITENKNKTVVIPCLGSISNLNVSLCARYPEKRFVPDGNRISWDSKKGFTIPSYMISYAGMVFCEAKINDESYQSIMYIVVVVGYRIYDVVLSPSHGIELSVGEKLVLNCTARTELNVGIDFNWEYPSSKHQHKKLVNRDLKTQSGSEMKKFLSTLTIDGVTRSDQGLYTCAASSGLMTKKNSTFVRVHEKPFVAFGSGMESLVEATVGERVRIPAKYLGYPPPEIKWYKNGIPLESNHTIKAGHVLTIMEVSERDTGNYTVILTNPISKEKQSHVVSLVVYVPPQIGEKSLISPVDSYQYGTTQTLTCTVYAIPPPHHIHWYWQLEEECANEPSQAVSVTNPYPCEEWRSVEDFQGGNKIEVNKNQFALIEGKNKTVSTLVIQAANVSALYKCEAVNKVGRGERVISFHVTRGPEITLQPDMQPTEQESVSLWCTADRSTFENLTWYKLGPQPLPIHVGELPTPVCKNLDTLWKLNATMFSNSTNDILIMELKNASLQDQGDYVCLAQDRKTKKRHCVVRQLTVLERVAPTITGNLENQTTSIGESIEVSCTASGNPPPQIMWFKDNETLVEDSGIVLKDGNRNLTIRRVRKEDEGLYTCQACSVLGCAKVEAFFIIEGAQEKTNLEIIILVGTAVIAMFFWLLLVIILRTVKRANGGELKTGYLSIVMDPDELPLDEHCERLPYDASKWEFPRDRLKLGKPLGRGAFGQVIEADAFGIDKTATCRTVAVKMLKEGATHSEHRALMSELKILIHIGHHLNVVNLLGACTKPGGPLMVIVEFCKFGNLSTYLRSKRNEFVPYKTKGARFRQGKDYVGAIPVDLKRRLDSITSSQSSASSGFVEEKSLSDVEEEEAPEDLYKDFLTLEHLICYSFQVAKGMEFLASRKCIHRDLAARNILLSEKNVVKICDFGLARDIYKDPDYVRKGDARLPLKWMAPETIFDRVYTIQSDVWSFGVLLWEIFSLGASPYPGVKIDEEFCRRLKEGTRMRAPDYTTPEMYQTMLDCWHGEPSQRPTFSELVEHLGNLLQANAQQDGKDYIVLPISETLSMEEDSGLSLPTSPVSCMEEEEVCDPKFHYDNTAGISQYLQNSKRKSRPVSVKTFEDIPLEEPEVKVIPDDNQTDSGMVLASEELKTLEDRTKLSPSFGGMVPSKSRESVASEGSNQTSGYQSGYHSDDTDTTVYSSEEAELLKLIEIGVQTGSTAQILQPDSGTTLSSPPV

Ba/F3-TEL-FGFR3 cells = assay: Ba/F3-TEL-FGFR3 cell proliferation assay (Alamar Blue); format: cell-based
[2] = tested on: LP-1 cell line (FGF-1/Heparin induced pERK); assay: Cell-based pERK ELISA, LP-1 cells; conditions: Homo sapiens, LP-1, read-out: LP-1 pERK ELISA (μM)
[3] = BaF3, read-out: BaF3 WT prolif, % inhibition
[4] = BaF3, 72 hours, Alamar Blue, read-out: BaF3 WT prolif
[5] = 72 hours, Alamar Blue, read-out: BaF3-TEL-FGFR3 prolif
[6] = BaF3, at 10 μM, read-out: BaF3 WT prolif, % inhibition
[7] = 72 h, read-out: BaF3-TEL-FGFR3 prolif (μM)
[8] = BaF3, 72 h, read-out: BaF3 WT prolif (μM)

O=C(NCC(F)(F)F)Nc1cccc(-c2cnc3cc(-c4nccc(N5CCNCC5)n4)ccn23)c1 (as salt: HCl) (hydrate or solvate) [Compound 269]
melting point: 200 °C

Nc1nc(-c2ccn3c(-c4cccc(NC(=O)NCC(F)(F)F)c4)cnc3c2)ncc1C(=O)O (as salt: HCl) (hydrate or solvate) [Compound 277]
melting point: > 260 °C

Cc1nnc(-c2ccn3c(-c4cccc(NC(=O)NC5CC5)c4)cnc3c2)o1 [Compound 157B]
melting point: 229.6 °C

O=C(Nc1cccc(-c2cnc3cc(-c4nncs4)ccn23)c1)NC1CC1 [Compound 158B]
melting point: 205 °C

N#Cc1cnc(-c2ccn3c(-c4cccc(NC(=O)NCC(F)(F)F)c4)cnc3c2)nc1N [Compound 165B]
melting point: 161 °C

O=C(NCC(F)(F)F)Nc1cc(F)cc(-c2cnc3cc(-c4ccnc(C(F)(F)F)n4)ccn23)c1 [Compound 251]
inhibition at 10 µM [1, 3]: 0% | melting point: 263 °C

N#Cc1ccnc(-c2ccn3c(-c4cccc(NC(=O)NCC(F)(F)F)c4)cnc3c2)n1 [Compound 253]
IC50 [1, 4]: 1.8 µM | melting point: 210 °C

Nc1nc(-c2ccn3c(-c4cc(NC(=O)NCC(F)(F)F)cc(OC5CCCC5)c4)cnc3c2)ncc1F [Compound 281]
IC50 [1, 4]: 1.4 µM | inhibition at 0.1 µM (FGFR3; 3 h, read-out: FGFR3 % I): 42%

Cc1ccc(NC(=O)NCC(F)(F)F)cc1-c1cnc2cc(-c3ncc(F)c(N)n3)ccn12 [Compound 283]
IC50 (FGFR3; read-out: FGFR3 IC50, […]): > 1000 nM | IC50 (VEGFR2): > 10000 nM

CCNc1nnc(-c2ccn3c(-c4cccc(NC(=O)NCC(F)(F)F)c4)cnc3c2)s1 [Compound 286]
inhibition at 3 µM (Ba/F3-TEL-FGFR3 cells; read-out: BaF3-TEL-FGFR3 prolif, % inhibition): 55% | inhibition at 10 µM [1, 3]: 0% | inhibition at 0.0003 µM (FGFR3; 3 h, read-out: FGFR3 % I): 57%

COCCNc1nnc(-c2ccn3c(-c4cccc(NC(=O)NCC(F)(F)F)c4)cnc3c2)s1 [Compound 288]
IC50 (Ba/F3-TEL-FGFR3 cells; [5]): 0.035 µM | inhibition at 10 µM [1, 3]: 7.8% | inhibition at 0.0003 µM (FGFR3; 3 h, read-out: FGFR3 % I): 54%

COc1cc(NC(=O)NCC(F)(F)F)cc(-c2cnc3cc(-c4ncccn4)ccn23)c1 [Compound 304]
inhibition at 0.1 µM (FGFR3; 3 h, read-out: FGFR3 % I): 55% | inhibition at 3 µM (VEGFR2; 1 h, read-out: VEGFR2 % I): 59%

COC(=O)c1cc(NC(=O)NCC(F)(F)F)cc(-c2cnc3cc(-c4ccnc(C(F)(F)F)n4)ccn23)c1 [Compound 307]
inhibition at 10 µM (Ba/F3-TEL-FGFR3 cells; at 10 μM, read-out: BaF3-TEL-FGFR3 prolif, % inhibition): 25% | inhibition at 10 µM [1, 6]: 0% | inhibition at 0.03 µM (FGFR3; 3 h, read-out: FGFR3 % I): 39% | inhibition at 1 µM (VEGFR2; 1 h, at 1 μM, read-out: VEGFR2 % I): 58%

N#CCc1cc(NC(=O)NCC(F)(F)F)cc(-c2cnc3cc(-c4ccnc(C(F)(F)F)n4)ccn23)c1 [Compound 310]
inhibition at 0.3 µM (FGFR3; 3 h, read-out: FGFR3 % I): 36% | IC50 (VEGFR2): > 3000 nM

CC(C)(O)c1ccc(-c2ccn3c(-c4cccc(NC(=O)NCC(F)(F)F)c4)cnc3c2)cc1 [Compound 321]
IC50 (Ba/F3-TEL-FGFR3 cells; [5]): 0.021 µM | IC50 [1, 4]: 0.46 µM | inhibition at 0.0003 µM (FGFR3; 3 h, read-out: FGFR3 % I): 36%

NC1CCN(c2ccc(-c3ccn4c(-c5cccc(NC(=O)NCC(F)(F)F)c5)cnc4c3)cn2)CC1 [Compound 330]
IC50 (Ba/F3-TEL-FGFR3 cells; [5]): 0.027 µM | IC50 [1, 4]: 0.56 µM | inhibition at 0.00097 µM (FGFR3; 3 h, read-out: FGFR3 % I): 66%

CCCCCOC(=O)Nc1nc(-c2ccn3c(-c4cccc(NC(=O)NCC(F)(F)F)c4)cnc3c2)ncc1F [Compound 331]
IC50 (Ba/F3-TEL-FGFR3 cells; [5]): 1.6 µM | inhibition at 10 µM [1, 6]: 60% | inhibition at 0.03 µM (FGFR3; 3 h, read-out: FGFR3 % I): 42% | inhibition at 3 µM (VEGFR2; 1 h, read-out: VEGFR2 % I): 43%

CC(C)(CO)n1cc(-c2ccn3c(-c4cccc(NC(=O)NCC(F)(F)F)c4)cnc3c2)cn1 [Example 10, 1-(3-{7-[1-(2-Hydroxy-1,1-dimethylethyl)-1H-pyrazol-4-yl]-imidazo[1,2-a]pyridin-3-yl}phenyl)-3-(2,2,2-trifluoroethyl)urea]
IC50 [2]: 0.047 µM | IC50 (Ba/F3-TEL-FGFR3 cells; [5]): 0.3 µM | IC50 [1, 4]: 2.3 µM | inhibition at 0.001 µM (FGFR3; 3 h, read-out: FGFR3 % I): 50%

O=C(NCC(F)(F)F)Nc1cccc(-c2cnc3cc(-c4ccc(N5CCNCC5)nn4)ccn23)c1 [Example 23, 1-{3-[7-(6-Piperazin-1-ylpyridazin-3-yl)-imidazo[1,2-a]pyridin-3-yl]phenyl}-3-(2,2,2-trifluoroethyl)urea trifluoroacetate]
IC50 [2]: 0.63 µM | IC50 (Ba/F3-TEL-FGFR3 cells; [5]): 0.42 µM | inhibition at 10 µM [1, 6]: 0% | inhibition at 0.001 µM (FGFR3; 3 h, read-out: FGFR3 % I): 58%

CC(C)N1CCC(n2cc(-c3ccn4c(-c5cccc(NC(=O)NCC(F)(F)F)c5)cnc4c3)cn2)CC1 [Example 50, 1-(3-{7-[1-(1-Isopropylpiperidin-4-yl)-1H-pyrazol-4-yl]imidazo[1,2-a]pyridin-3-yl}-phenyl)-3-(2,2,2-trifluoroethyl)urea hydrochloride]
IC50 [2]: 0.021 µM | IC50 (Ba/F3-TEL-FGFR3 cells; [5]): 0.029 µM | IC50 [1, 4]: 0.71 µM | inhibition at 0.0003 µM (FGFR3; 3 h, read-out: FGFR3 % I): 39%

CC(=O)N1CCC(n2cc(-c3ccn4c(-c5cccc(NC(=O)NCC(F)(F)F)c5)cnc4c3)cn2)CC1 [Example 63, 1-(3-{7-[1-(1-Acetyl-piperidin-4-yl)-1H-pyrazol-4-yl]-imidazo[1,2-a]pyridin-3-yl}-phenyl)-3-(2,2,2-trifluoro-ethyl)-urea formate]
IC50 [2]: 0.05 µM | IC50 (Ba/F3-TEL-FGFR3 cells; [7]): 0.092 µM | IC50 [1, 8]: 1.4 µM | inhibition at 0.0003 µM (FGFR3; 3 h, read-out: FGFR3 % I): 50.5%

O=C(NCC(F)(F)F)Nc1cccc(-c2cnc3cc(-c4ccc(NC5CCOCC5)nn4)ccn23)c1 [Example 66, 1-(3-{7-[6-(Tetrahydro-pyran-4-ylamino)-pyridazin-3-yl]-imidazo[1,2-a]pyridin-3-yl}-phenyl)-3-(2,2,2-trifluoro-ethyl)-urea bis-hydrochloride]
IC50 [2]: 0.069 µM | IC50 (Ba/F3-TEL-FGFR3 cells; [7]): 0.046 µM | IC50 [1, 8]: 1.9 µM | inhibition at 0.0003 µM (FGFR3; 3 h, read-out: FGFR3 % I): 43%

CC(C)(C(=O)N1CCC1)n1cc(-c2ccn3c(-c4cccc(NC(=O)NCC(F)(F)F)c4)cnc3c2)cn1 [Example 73, 1-(3-{7-[1-(2-Azetidin-1-yl-1,1-dimethyl-2-oxo-ethyl)-1H-pyrazol-4-yl]-imidazo[1,2-a]pyridin-3-yl}-phenyl)-3-(2,2,2-trifluoro-ethyl)-urea]
IC50 [2]: 0.12 µM | IC50 (Ba/F3-TEL-FGFR3 cells; [5]): 0.13 µM | IC50 [1, 4]: 3.7 µM | inhibition at 0.001 µM (FGFR3; 3 h, read-out: FGFR3 % I): 60%

CS(=O)(=O)N1CCC(n2cc(-c3ccn4c(-c5cccc(NC(=O)NCC(F)(F)F)c5)cnc4c3)cn2)CC1 [Example 74, 1-(3-{7-[1-(1-Methanesulfonyl-piperidin-4-yl)-1H-pyrazol-4-yl]-imidazo [1,2-a]pyridin-3-yl}-phenyl)-3-(2,2,2-trifluoro-ethyl)-urea]
IC50 [2]: 0.018 µM | IC50 (Ba/F3-TEL-FGFR3 cells; [5]): 0.096 µM | IC50 [1, 4]: 0.82 µM | inhibition at 0.0003 µM (FGFR3; 3 h, read-out: FGFR3 % I): 51.5%

Cc1noc(C)c1C#Cc1ccn2c(-c3cccc(NC(=O)NCC(F)(F)F)c3)cnc2c1 [Example 112, 1-{3-[7-(3,5-Dimethyl-isoxazol-4-ylethynyl)-imidazo[1,2-a]pyridin-3-yl]-phenyl}-3-(2,2,2-trifluoro-ethyl)-urea trifluoroacetate]
inhibition at 0.3 µM (FGFR3; 3 h, read-out: FGFR3 % I): 49%

CNc1cc(-c2ccn3c(-c4cccc(NC(=O)NCC(F)(F)F)c4)cnc3c2)ncn1 [Example 195]
IC50 (Ba/F3-TEL-FGFR3 cells; [5]): 0.076 µM | IC50 [1, 4]: 5 µM | inhibition at 0.00097 µM (FGFR3; 3 h, read-out: FGFR3 % I): 66%

O=C(NCC(F)(F)F)Nc1cccc(-c2cnc3cc(-c4ccc(O)cn4)ccn23)c1 [Example 202]
IC50 (Ba/F3-TEL-FGFR3 cells; [5]): 0.26 µM | inhibition at 1 µM [1, 3]: 21% | inhibition at 0.001 µM (FGFR3; 3 h, read-out: FGFR3 % I): 46%

O=C(NCC(F)(F)F)Nc1cccc(-c2cnc3cc(-c4ccnc(-n5ccnc5)n4)ccn23)c1 [Example 215]
IC50 (Ba/F3-TEL-FGFR3 cells; [5]): 8.8 µM | IC50 [1, 4]: 10 µM | inhibition at 0.1 µM (FGFR3; 3 h, read-out: FGFR3 % I): 39% | IC50 (VEGFR2): > 10000 nM

CNC(=O)c1ccc(-c2ccn3c(-c4cccc(NC(=O)NCC(F)(F)F)c4)cnc3c2)nc1 [Example 224]
IC50 (Ba/F3-TEL-FGFR3 cells; [5]): 0.033 µM | inhibition at 3 µM [1, 3]: 16% | inhibition at 0.001 µM (FGFR3; 3 h, read-out: FGFR3 % I): 61%

O=C(NCC(F)(F)F)Nc1cccc(-c2cnc3cc(-c4ccc(C(F)(F)F)nn4)ccn23)c1 [Example 229]
IC50 (Ba/F3-TEL-FGFR3 cells; [5]): 0.32 µM | IC50 [1, 4]: 5.5 µM | inhibition at 0.03 µM (FGFR3; 3 h, read-out: FGFR3 % I): 67% | inhibition at 0.3 µM (VEGFR2; 1 h, at 0.3 μM, read-out: VEGFR2 % I): 59%

CCNC(=O)Nc1cccc(-c2cnc3cc(-c4ncc(OC)cn4)ccn23)c1 [Example 230]
IC50 (Ba/F3-TEL-FGFR3 cells; [5]): 0.09 µM | IC50 [1, 4]: 0.16 µM | inhibition at 0.003 µM (FGFR3; 3 h, read-out: FGFR3 % I): 49%

O=C(NCC(F)(F)F)Nc1cccc(-c2cnc3cc(-c4cnc(C(F)(F)F)nc4)ccn23)c1 [Example 232]
IC50 (Ba/F3-TEL-FGFR3 cells; [5]): 0.045 µM | IC50 [1, 4]: 0.6 µM | inhibition at 0.001 µM (FGFR3; 3 h, read-out: FGFR3 % I): 45%

CCNC(=O)Nc1cccc(-c2cnc3cc(-c4nnc(C(F)(F)F)s4)ccn23)c1 [Example 236]
inhibition at 0.31 µM (FGFR3; 3 h, read-out: FGFR3 % I): 46%
